Assay results taken from patent publication US20090233907A1, “Pyridopyrimidine Derivatives and Their Use as PDE4 Inhibitors” (ASTRAZENECA AB, priority 2006, published 2009).

Biological target: recombinant Human Phosphodiesterase B2 (PDE4B2) (Homo sapiens, UniProt Q07343)
Test: Human Phosphodiesterase B2 Alpha Screen Assay
Type: biochemical
Conditions: Alpha Screen cAMP assay
Description: Human Phosphodiesterase B2 Alpha Screen Assay
The assay uses recombinant Human Phosphodiesterase B2 (PDE4B2) produced in house (PrAZL0133), stored at −20° C. The substrate uses cAMP, part of the Alpha Screen cAMP kit (Perkin Elmer, Cat# 6760625M), stored at 4° C. The Alpha Screen kit also includes biotinylated cAMP, acceptor and donor beads.
The assay additions were as follows: Test compounds and controls were added to white 384-well flat-bottom plates (Greiner, Cat# 781075), 0.2 μl in 100% DMSO, followed by 10 μl PDE4B2 in reaction buffer. The reaction buffer constitution was: 50 mM Tris (pH 7.5), 8.3 mM MgCl2, 1.7 mM EGTA and 0.01% (w/v) Brij®35. The enzyme and the compounds were incubated at room temperature for 15 minutes. Then 10 μl cAMP in reaction buffer was added. The assay was stopped after 60 minutes incubation at room temperature by adding 10 μl acceptor beads in detection buffer with 40 mM EDTA. The detection buffer constitution was: 5 mM Tris (pH 7.5), 0.1% (w/v) BSA and 0.1% (v/v) Tween 20. This addition followed by an addition of 10 μl donor beads in detection buffer, with biotinylated cAMP. The plates were then incubated, dark at room temperature, for 5 hours followed by measurement on a Fusion™-α analyser. IC50 values (presented in Table 4) were determined using Xlfit curve fitting using model 205.

recombinant Human Phosphodiesterase B2 (PDE4B2), sequence (Q07343 1-564 isoform Q07343-2): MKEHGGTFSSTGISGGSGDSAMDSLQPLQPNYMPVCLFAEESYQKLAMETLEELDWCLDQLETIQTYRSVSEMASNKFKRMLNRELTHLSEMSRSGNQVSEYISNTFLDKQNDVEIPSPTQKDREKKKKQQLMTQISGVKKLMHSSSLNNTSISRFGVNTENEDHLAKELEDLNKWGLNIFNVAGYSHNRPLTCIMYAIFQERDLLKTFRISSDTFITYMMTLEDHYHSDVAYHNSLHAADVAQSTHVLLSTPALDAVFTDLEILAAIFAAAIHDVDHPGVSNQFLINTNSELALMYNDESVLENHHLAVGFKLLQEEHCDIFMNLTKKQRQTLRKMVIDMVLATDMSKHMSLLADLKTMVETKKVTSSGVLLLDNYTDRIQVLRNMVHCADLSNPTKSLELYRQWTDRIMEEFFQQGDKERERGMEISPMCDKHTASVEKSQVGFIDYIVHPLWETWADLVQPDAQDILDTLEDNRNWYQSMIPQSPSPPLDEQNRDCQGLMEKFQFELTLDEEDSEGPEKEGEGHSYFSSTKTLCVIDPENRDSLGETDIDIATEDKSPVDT

Structure (SMILES) | IC50
O=C(N[C@H]1CC[C@@H](n2c(=O)c3cc(F)cnc3n(C3CCSCC3)c2=O)CC1)C(O)c1ccccc1 (relative stereo) [Example 22, N-{cis-4-[6-fluoro-2,4-dioxo-1-(tetrahydro-2H-thiopyran-4-yl)-1,4-dihydropyrido[2,3-d]pyrimidin-3(2H)-yl]cyclohexyl}-2-hydroxy-2-phenylacetamide] | 0.877 nM
O=C(N[C@H]1CC[C@@H](n2c(=O)c3cc(F)cnc3n(C3CCSC3)c2=O)CC1)C1CC1 (relative stereo) [Example 27, N-{cis-4-[6-fluoro-2,4-dioxo-1-(tetrahydro-3-thienyl)-1,4-dihydropyrido[2,3-d]pyrimidin-3(2H)-yl]cyclohexyl}cyclopropanecarboxamide] | 10.7 nM
O=C(N[C@H]1CC[C@@H](n2c(=O)c3cc(F)cnc3n(C3CCSC3)c2=O)CC1)c1cn2ccccc2n1 (relative stereo) [Example 28, N-{cis-4-[6-fluoro-2,4-dioxo-1-(tetrahydro-3-thienyl)-1,4-dihydropyrido[2,3-d]pyrimidin-3(2H)-yl]cyclohexyl}imidazo[1,2-a]pyridine-2-carboxamide] | 0.97 nM
O=C(N[C@H]1CC[C@@H](n2c(=O)c3cc(F)cnc3n(C3CCSC3)c2=O)CC1)c1cc(CO)ccc1O (relative stereo) [Example 29, N-{cis-4-[6-fluoro-2,4-dioxo-1-(tetrahydro-3-thienyl)-1,4-dihydropyrido[2,3-d]pyrimidin-3(2H)-yl]cyclohexyl}-2-hydroxy-5-(hydroxymethyl)benzamide] | 5.51 nM
O=C(N[C@H]1CC[C@@H](n2c(=O)c3cc(F)cnc3n(C3CCSC3)c2=O)CC1)c1ccccc1O (relative stereo) [Example 30, N-{cis-4-[6-fluoro-2,4-dioxo-1-(tetrahydro-3-thienyl)-1,4-dihydropyrido[2,3-d]pyrimidin-3(2H)-yl]cyclohexyl}-2-hydroxybenzamide] | 6.45 nM
Cc1ccc(C(=O)N[C@H]2CC[C@@H](n3c(=O)c4cc(F)cnc4n(C4CCSC4)c3=O)CC2)c(O)c1 (relative stereo) [Example 31, N-{cis-4-[6-fluoro-2,4-dioxo-1-(tetrahydro-3-thienyl)-1,4-dihydropyrido[2,3-d]pyrimidin-3(2H)-yl]cyclohexyl}-2-hydroxy-4-methylbenzamide] | 2.75 nM
O=C(N[C@H]1CC[C@@H](n2c(=O)c3cc(F)cnc3n(C3CCSCC3)c2=O)CC1)C1CC1 [Example 1, N-{cis-4-[6-Fluoro-2,4-dioxo-1-(tetrahydro-2H-thiopyran-4-yl)-1,4-dihydropyrido[2,3-d]pyrimidin-3(2H)-yl]cyclohexyl}cyclopropanecarboxamide] | 4.59 nM
O=C(N[C@H]1CC[C@@H](n2c(=O)c3cc(F)cnc3n(C3CCSCC3)c2=O)CC1)c1cn2ccccc2n1 [Example 2, N-{cis-4-[6-Fluoro-2,4-dioxo-1-(tetrahydro-2H-thiopyran-4-yl)-1,4-dihydropyrido[2,3-d]pyrimidin-3(2H)-yl]cyclohexyl}imidazo[1,2-a]pyridine-2-carboxamide] | 1.1 nM
O=C(N[C@H]1CC[C@@H](n2c(=O)c3cc(F)cnc3n(C3CCSCC3)c2=O)CC1)c1cccc2cccnc12 [Example 3, N-{cis-4-[6-fluoro-2,4-dioxo-1-(tetrahydro-2H-thiopyran-4-yl)-1,4-dihydropyrido[2,3-d]pyrimidin-3(2H)-yl]cyclohexyl}quinoline-8-carboxamide] | 1.31 nM
O=C(N[C@H]1CC[C@@H](n2c(=O)c3cc(F)cnc3n(C3CCSCC3)c2=O)CC1)c1cc2ccccn2n1 [Example 4, N-{cis-4-[6-fluoro-2,4-dioxo-1-(tetrahydro-2H-thiopyran-4-yl)-1,4-dihydropyrido[2,3-d]pyrimidin-3(2H)-yl]cyclohexyl}pyrazolo[1,5-a]pyridine-2-carboxamide] | 0.674 nM
O=C(N[C@H]1CC[C@@H](n2c(=O)c3cc(F)cnc3n(C3CCSCC3)c2=O)CC1)c1n[nH]c2ccccc12 [Example 5, N-{cis-4-[6-fluoro-2,4-dioxo-1-(tetrahydro-2H-thiopyran-4-yl)-1,4-dihydropyrido[2,3-d]pyrimidin-3(2H)-yl]cyclohexyl}-1H-indazole-3-carboxamide] | 1.35 nM
O=C(CNC(=O)c1ccccc1O)N[C@H]1CC[C@@H](n2c(=O)c3cc(F)cnc3n(C3CCSCC3)c2=O)CC1 [Example 6, N-[2-({cis-4-[6-fluoro-2,4-dioxo-1-(tetrahydro-2H-thiopyran-4-yl)-1,4-dihydropyrido[2,3-d]pyrimidin-3(2H)-yl]cyclohexyl}amino)-2-oxoethyl]-2-hydroxybenzamide] | 1.02 nM
COc1ccc(C(=O)N[C@H]2CC[C@@H](n3c(=O)c4cc(F)cnc4n(C4CCSCC4)c3=O)CC2)cc1O [Example 7, N-{cis-4-[6-fluoro-2,4-dioxo-1-(tetrahydro-2H-thiopyran-4-yl)-1,4-dihydropyrido[2,3-d]pyrimidin-3(2H)-yl]cyclohexyl}-3-hydroxy-4-methoxybenzamide] | 0.874 nM
O=C(Cc1cccc(O)c1)N[C@H]1CC[C@@H](n2c(=O)c3cc(F)cnc3n(C3CCSCC3)c2=O)CC1 [Example 8, N-{cis-4-[6-fluoro-2,4-dioxo-1-(tetrahydro-2H-thiopyran-4-yl)-1,4-dihydropyrido[2,3-d]pyrimidin-3(2H)-yl]cyclohexyl}-2-(3-hydroxyphenyl)acetamide] | 1.62 nM
Cc1ccc(C(=O)N[C@H]2CC[C@@H](n3c(=O)c4cc(F)cnc4n(C4CCSCC4)c3=O)CC2)c(O)c1 [Example 9, N-{cis-4-[6-fluoro-2,4-dioxo-1-(tetrahydro-2H-thiopyran-4-yl)-1,4-dihydropyrido[2,3-d]pyrimidin-3(2H)-yl]cyclohexyl}-2-hydroxy-4-methylbenzamide] | 3.75 nM
Cc1ccc(C(=O)N[C@H]2CC[C@@H](n3c(=O)c4cc(F)cnc4n(C4CCSCC4)c3=O)CC2)cc1O [Example 10, N-{cis-4-[6-fluoro-2,4-dioxo-1-(tetrahydro-2H-thiopyran-4-yl)-1,4-dihydropyrido[2,3-d]pyrimidin-3(2H)-yl]cyclohexyl}-3-hydroxy-4-methylbenzamide] | 1.12 nM
COc1cc(C(=O)N[C@H]2CC[C@@H](n3c(=O)c4cc(F)cnc4n(C4CCSCC4)c3=O)CC2)ccc1O [Example 11, N-{cis-4-[6-fluoro-2,4-dioxo-1-(tetrahydro-2H-thiopyran-4-yl)-1,4-dihydropyrido[2,3-d]pyrimidin-3(2H)-yl]cyclohexyl}-4-hydroxy-3-methoxybenzamide] | 1.61 nM
O=C(N[C@H]1CC[C@@H](n2c(=O)c3cc(F)cnc3n(C3CCSCC3)c2=O)CC1)[C@H](O)C1CCCCC1 [Example 12, (2R)-2-cyclohexyl-N-{cis-4-[6-fluoro-2,4-dioxo-1-(tetrahydro-2H-thiopyran-4-yl)-1,4-dihydropyrido[2,3-d]pyrimidin-3(2H)-yl]cyclohexyl}-2-hydroxyacetamide] | 0.887 nM
O=C(N[C@H]1CC[C@@H](n2c(=O)c3cc(F)cnc3n(C3CCSCC3)c2=O)CC1)c1cccc(O)c1 [Example 14, N-{cis-4-[6-fluoro-2,4-dioxo-1-(tetrahydro-2H-thiopyran-4-yl)-1,4-dihydropyrido[2,3-d]pyrimidin-3(2H)-yl]cyclohexyl}-3-hydroxybenzamide] | 1.8 nM
O=C(Cc1ccc(O)cc1)N[C@H]1CC[C@@H](n2c(=O)c3cc(F)cnc3n(C3CCSCC3)c2=O)CC1 [Example 15, N-{cis-4-[6-fluoro-2,4-dioxo-1-(tetrahydro-2H-thiopyran-4-yl)-1,4-dihydropyrido[2,3-d]pyrimidin-3(2H)-yl]cyclohexyl}-2-(4-hydroxyphenyl)acetamide] | 1.75 nM
O=C(N[C@H]1CC[C@@H](n2c(=O)c3cc(F)cnc3n(C3CCSCC3)c2=O)CC1)c1ccc(O)cc1 [Example 16, N-{cis-4-[6-fluoro-2,4-dioxo-1-(tetrahydro-2H-thiopyran-4-yl)-1,4-dihydropyrido[2,3-d]pyrimidin-3(2H)-yl]cyclohexyl}-4-hydroxybenzamide] | 1.69 nM
O=C(N[C@H]1CC[C@@H](n2c(=O)c3cc(F)cnc3n(C3CCSCC3)c2=O)CC1)c1ccccc1O [Example 17, N-{cis-4-[6-fluoro-2,4-dioxo-1-(tetrahydro-2H-thiopyran-4-yl)-1,4-dihydropyrido[2,3-d]pyrimidin-3(2H)-yl]cyclohexyl}-2-hydroxybenzamide] | 4.65 nM
O=C(N[C@H]1CC[C@@H](n2c(=O)c3cc(F)cnc3n(C3CCSCC3)c2=O)CC1)C1CCCCC1 [Example 18, N-{cis-4-[6-fluoro-2,4-dioxo-1-(tetrahydro-2H-thiopyran-4-yl)-1,4-dihydropyrido[2,3-d]pyrimidin-3(2H)-yl]cyclohexyl}cyclohexanecarboxamide] | 2.15 nM
O=C(CCc1cccc(O)c1)N[C@H]1CC[C@@H](n2c(=O)c3cc(F)cnc3n(C3CCSCC3)c2=O)CC1 [Example 19, N-{cis-4-[6-fluoro-2,4-dioxo-1-(tetrahydro-2H-thiopyran-4-yl)-1,4-dihydropyrido[2,3-d]pyrimidin-3(2H)-yl]cyclohexyl}-3-(3-hydroxyphenyl)propanamide] | 2.53 nM
